Source: patent publication US20260049091A1, “2-(1,8-DIETHYL-1,3,4,9-TETRAHYDROPYRANO[3,4-B]INDOL-1-YL)-1-(4-METHYLPIPERAZIN-1-YL)ETHAN-1-ONE ETODOLAC DERIVATIVE AS EUKARYOTIC ELONGATION FACTOR 2 KINASE (EEF2K) INHIBITOR FOR TARGETED CANCER THERAPY” (BAHCESEHIR UNIVERSITESI, priority 2023, published 2026)

Legend:
eEF2K [1] = target: T1, eEF2K (Homo sapiens, UniProt O00418); assay: Western blot analysis of eEF2K inhibition (p-EF2 Thr56) in MDA-MB-231 cells; assay type: cell-based; details: for eEF2K inhibition potential (p-EF2 Thr56): MDA-MB-231 (TNBC) cells, 2.5 to 20 micromolar, 2 h; for eEF2K inhibition, reduced p-EF2 (Thr56) levels: MDA-MB-231 cells, 2.5 micromolar, 2 h treatment
T1 sequence (O00418 1-725): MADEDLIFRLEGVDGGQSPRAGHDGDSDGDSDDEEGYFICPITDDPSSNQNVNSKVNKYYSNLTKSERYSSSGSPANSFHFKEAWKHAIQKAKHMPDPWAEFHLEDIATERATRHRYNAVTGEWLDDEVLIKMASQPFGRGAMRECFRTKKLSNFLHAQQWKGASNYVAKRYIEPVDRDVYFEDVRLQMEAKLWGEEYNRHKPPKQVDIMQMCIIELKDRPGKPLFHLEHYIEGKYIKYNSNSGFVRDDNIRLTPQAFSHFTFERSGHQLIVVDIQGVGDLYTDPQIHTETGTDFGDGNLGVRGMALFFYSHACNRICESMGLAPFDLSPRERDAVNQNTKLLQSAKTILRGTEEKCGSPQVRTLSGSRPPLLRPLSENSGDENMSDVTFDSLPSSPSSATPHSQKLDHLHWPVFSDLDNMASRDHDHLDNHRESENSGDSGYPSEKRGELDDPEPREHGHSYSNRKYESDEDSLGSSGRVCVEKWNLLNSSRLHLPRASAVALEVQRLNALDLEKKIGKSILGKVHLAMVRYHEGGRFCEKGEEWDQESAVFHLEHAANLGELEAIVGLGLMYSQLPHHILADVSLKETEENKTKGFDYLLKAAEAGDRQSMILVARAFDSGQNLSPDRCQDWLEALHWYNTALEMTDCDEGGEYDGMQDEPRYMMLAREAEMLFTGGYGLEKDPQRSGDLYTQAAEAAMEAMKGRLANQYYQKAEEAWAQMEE
Procedure: MeOH: distilled water by volume (%) (70:30) was used as the mobile phase for HPLC analysis for the inventive compound and the flow rate was set to 1 mL min^−1. Triple negative breast cancer (TNBC) cell lines (ER-, PR- and HER2-) MDA-MB-231 cells were purchased from the American Type Culture Collection (ATCC) (Manassas, VA, USA). MDA-MB-231 cells were cultured in Dulbecco's modified Eagle's medium (DMEM)/F12 supplemented with 10% FBS (Fetal Bovine Serum) and 100 U mL^−1 penicillin and streptomycin. Specific antibodies (p-EF2 (Thr56) (2331S), eEF2 (2332S), eEF2K (3692S) and GAPDH (5174S)) were purchased from Cell Signaling Technology (CST).
Western blot analysis was carried out according to previously reported studies to evaluate the eEF2K inhibition activity for the synthesized compounds. The synthesized compound was applied to MDA-MB-231 cells in the range of various concentrations from 2.5 to 20 micromolar for 2 h treatment. The expression levels of p-EF2 (Thr56) inhibition and eEF2K activity were determined by using related antibodies such as p-EF2 (Thr56), eEF2 and eEF2K. Glyceraldehyde 3-phosphate dehydrogenase (GAPDH) was used as a loading control.
To determine the effects of the synthesized compounds in inhibiting eEF2K activity in TNBC, MDA-MB-231 cells, we performed western blot analysis at concentrations ranging from 2.5 micromolar to 20 micromolar in a dose-dependent manner. eEF2K inhibition was detected by decreased phosphorylation levels of EF2 (p-EF2-Thr-56), a direct downstream substrate of the enzyme.

eEF2K [2] = target: T1, eEF2K; details: cited from earlier work; for eEF2K inhibition (reported, in words): literature

With `CCc1cccc2c3c([nH]c12)C(CC)(CC(=O)O)OCC3` (racemic) [Etodolac, (R,S)-2-[1,8-diethyl-1,3,4-tetrahydropyrano [3,4-b]indol-1-yl]acetic acid] the “eEF2K inhibition potential (p-EF2 Thr56)” value (eEF2K [1]) was “did not show any inhibition potential”.
With `CCc1cccc2c3c([nH]c12)C(CC)(CC(=O)N1CCN(C)CC1)OCC3` (stereo not shown) [Inventive compound, 2-(1,8-diethyl-1,3,4,9-tetrahydropyrano [3,4-b]indol-1-yl)-1-(4-methylpiperazin-1-yl) ethan-1-one] the “eEF2K inhibition potential (p-EF2 Thr56)” value (eEF2K [1]) was “high inhibition potential”, the “eEF2K inhibition, reduced p-EF2 (Thr56) levels” value (eEF2K [1]) was “highest phospho-eEF2 (Thr56) inhibition” and the “eEF2K inhibition, reduced p-EF2 (Thr56) levels” value (eEF2K [1]; listed as compound of the invention) was “marked inhibition of eEF2K”.
For `CCCCCCCCCCCCCCCCn1cc[n+](Cc2ccccc2)c1C.[I-]` [NH125], the “eEF2K inhibition (reported, in words)” value (eEF2K [2]) is given as “does not inhibit EF2K but rather increases eEF2 phosphorylation”.
In the case of `Cc1cc(C=C2C(=O)C=CC2=O)cc(C)c1O` [TX1918], the “concentration reported to inhibit eEF2K” value (eEF2K [2]; literature [44-46]) is listed as 10 µM and the “eEF2K inhibition (reported, in words)” value (eEF2K [2]) is listed as “did not show significant eEF2K inhibition”.
